For this experiment, the system named is MV-4-11 cells. The experiment can be described thus: Gene expression microarray analysis (Affymetrix PrimeView) and GSEA. Type of experiment: cell-based, human. Also noted: RFU PODN (11730768_x_at) / Fold change /veh PODN (11730768_x_at) / RFU LINC00158 (11744669_a_at) / Fold change /veh LINC00158 (11744669_a_at) / RFU DUSP10 (11751237_a_at) / Fold change /veh DUSP10 (11751237_a_at) / RFU ID3 (11757404_x_at) / Fold change /veh ID3 (11757404_x_at) / RFU PLEKHG5 (11737974_s_at) / Fold change /veh PLEKHG5 (11737974_s_at) / RFU LRRC4B (11730491_at) / Fold change /veh LRRC4B (11730491_at) / RFU GIMAP4 (11747438_a_at) / Fold change /veh GIMAP4 (11747438_a_at) / RFU KRT8 (11758183_x_at) / Fold change /veh KRT8 (11758183_x_at) / RFU CNN1 (11734310_a_at) / Fold change /veh CNN1 (11734310_a_at) / RFU VPS37D (11726825_at) / Fold change /veh VPS37D (11726825_at) / RFU C10orf10 (11716522_x_at) / Fold change /veh C10orf10 (11716522_x_at) / RFU KIR2DL2 /// KIR2DL4 /// KIR2DL5A /// KIR2DL5B /// KIR2DS1 /// KIR2DS2 /// KIR2DS3 /// KIR2DS4 /// KIR3DL3 /// KIR3DL3 /// KIR3DS1 (11738374_at) / Fold change /veh KIR2DL2 /// KIR2DL4 /// KIR2DL5A /// KIR2DL5B /// KIR2DS1 /// KIR2DS2 /// KIR2DS3 /// KIR2DS4 /// KIR3DL3 /// KIR3DL3 /// KIR3DS1 (11738374_at) / RFU C1QL1 (11718748_at) / Fold change /veh C1QL1 (11718748_at) / RFU TMPRSS4 (11747572_a_at) / Fold change /veh TMPRSS4 (11747572_a_at) / RFU HAMP (11756126_x_at) / Fold change /veh HAMP (11756126_x_at) / RFU RNFT2 (11725882_a_at) / Fold change /veh RNFT2 (11725882_a_at) / RFU NR4A2 (11747474_a_at) / Fold change /veh NR4A2 (11747474_a_at) / RFU ABCC12 (11746883_a_at) / Fold change /veh ABCC12 (11746883_a_at) / RFU TMEM136 (11760407_x_at) / Fold change /veh TMEM136 (11760407_x_at) / RFU CLDN22 /// WWC2 (11732394_at) / Fold change /veh CLDN22 /// WWC2 (11732394_at) / RFU HLA-DPB1 (11760878_x_at) / Fold change /veh HLA-DPB1 (11760878_x_at) / RFU SPINT1 (11716480_a_at) / Fold change /veh SPINT1 (11716480_a_at) / RFU GAP43 (11754022_s_at) / Fold change /veh GAP43 (11754022_s_at) / RFU A4GNT (11735810_at) / Fold change /veh A4GNT (11735810_at) / RFU PRB3 (11715151_x_at) / Fold change /veh PRB3 (11715151_x_at) / RFU TUBB4B (11761932_at) / Fold change /veh TUBB4B (11761932_at) / RFU CAPN14 (11732068_a_at) / Fold change /veh CAPN14 (11732068_a_at) / RFU TMCC2 (11721928_a_at) / Fold change /veh TMCC2 (11721928_a_at) / RFU IRGQ (11745062_a_at) / Fold change /veh IRGQ (11745062_a_at) / RFU FAM174B (11720279_a_at) / Fold change /veh FAM174B (11720279_a_at) / RFU TMPRSS4 (11748680_a_at) / Fold change /veh TMPRSS4 (11748680_a_at) / RFU FAM212B (11763350_a_at) / Fold change /veh FAM212B (11763350_a_at) / RFU PLEKHG5 (11743358_a_at) / Fold change /veh PLEKHG5 (11743358_a_at) / RFU ZSCAN30 (11745921_a_at) / Fold change /veh ZSCAN30 (11745921_a_at) / RFU CMKLR1 (11741424_a_at) / Fold change /veh CMKLR1 (11741424_a_at) / RFU LOC101060620 /// MAPK8IP1 (11723275_at) / Fold change /veh LOC101060620 /// MAPK8IP1 (11723275_at) / RFU SPTSSB (11747773_x_at) / Fold change /veh SPTSSB (11747773_x_at) / RFU PRSS12 (11739890_at) / Fold change /veh PRSS12 (11739890_at) / RFU BIN1 (11741810_x_at) / Fold change /veh BIN1 (11741810_x_at) / RFU WNT11 (11732464_a_at) / Fold change /veh WNT11 (11732464_a_at) / RFU C10orf10 (11716521_a_at) / Fold change /veh C10orf10 (11716521_a_at) / RFU C5orf56 (11738089_at) / Fold change /veh C5orf56 (11738089_at) / RFU CYB561 (11721691_x_at) / Fold change /veh CYB561 (11721691_x_at) / RFU ANKRD19P (11752326_a_at) / Fold change /veh ANKRD19P (11752326_a_at) / RFU OR2T12 /// OR2T33 /// OR2T8 (11738714_s_at) / Fold change /veh OR2T12 /// OR2T33 /// OR2T8 (11738714_s_at) / RFU VCAN (11748164_a_at) / Fold change /veh VCAN (11748164_a_at) / RFU JSRP1 (11732532_at) / Fold change /veh JSRP1 (11732532_at) / RFU KRTAP10-11 (11738290_x_at) / Fold change /veh KRTAP10-11 (11738290_x_at) / RFU MYO3A (11730013_a_at) / Fold change /veh MYO3A (11730013_a_at) / RFU EBF3 (11725865_a_at) / Fold change /veh EBF3 (11725865_a_at) / RFU CAMK2N1 (11719241_x_at) / Fold change /veh CAMK2N1 (11719241_x_at) / RFU C5orf56 (11738088_a_at) / Fold change /veh C5orf56 (11738088_a_at) / RFU OLFML3 (11715873_a_at) / Fold change /veh OLFML3 (11715873_a_at) / RFU LOC100653217 /// NTM (11731650_a_at) / Fold change /veh LOC100653217 /// NTM (11731650_a_at) / RFU MAPK11 (11762145_a_at) / Fold change /veh MAPK11 (11762145_a_at) / RFU FIZ1 (11724087_x_at) / Fold change /veh FIZ1 (11724087_x_at) / RFU OASL (11726364_x_at) / Fold change /veh OASL (11726364_x_at) / RFU SOX15 (11748057_x_at) / Fold change /veh SOX15 (11748057_x_at) / RFU CD79A (11719716_a_at) / Fold change /veh CD79A (11719716_a_at) / RFU HIST1H1D (11736915_at) / Fold change /veh HIST1H1D (11736915_at) / RFU CASKIN2 (11723855_a_at) / Fold change /veh CASKIN2 (11723855_a_at) / RFU LOC730098 (11760151_x_at) / Fold change /veh LOC730098 (11760151_x_at) / RFU OR4N2 (11742367_at) / Fold change /veh OR4N2 (11742367_at) / RFU PRRT2 (11749266_a_at) / Fold change /veh PRRT2 (11749266_a_at) / RFU SNX32 (11753110_a_at) / Fold change /veh SNX32 (11753110_a_at) / RFU CDHR5 (11726645_a_at) / Fold change /veh CDHR5 (11726645_a_at) / RFU RCAN1 (11760418_a_at) / Fold change /veh RCAN1 (11760418_a_at) / RFU FAM167A (11723789_a_at) / Fold change /veh FAM167A (11723789_a_at) / RFU FAM26E (11764081_at) / Fold change /veh FAM26E (11764081_at) / RFU ISYNA1 (11749810_s_at) / Fold change /veh ISYNA1 (11749810_s_at) / RFU ACY1 (11761880_at) / Fold change /veh ACY1 (11761880_at) / RFU 11764098_at / Fold change /veh 11764098_at / RFU SAMD14 (11745864_x_at) / Fold change /veh SAMD14 (11745864_x_at) / RFU NPB (11741838_a_at) / Fold change /veh NPB (11741838_a_at) / RFU TMPRSS6 (11731388_a_at) / Fold change /veh TMPRSS6 (11731388_a_at) / RFU KRTAP10-2 (11738614_at) / Fold change /veh KRTAP10-2 (11738614_at) / RFU ARHGAP8 /// PRR5-ARHGAP8 (11727945_x_at) / Fold change /veh ARHGAP8 /// PRR5-ARHGAP8 (11727945_x_at) / RFU KRTAP5-7 /// NADSYN1 (11734609_at) / Fold change /veh KRTAP5-7 /// NADSYN1 (11734609_at) / RFU RASL12 (11751679_a_at) / Fold change /veh RASL12 (11751679_a_at) / RFU CDKN2B (11736163_a_at) / Fold change /veh CDKN2B (11736163_a_at) / RFU PRF1 (11729649_at) / Fold change /veh PRF1 (11729649_at) / RFU, ZNF638 /// ZNF638-IT1 / Fold change vs veh, ZNF638 /// ZNF638-IT1 / RFU, PANK3 / Fold change vs veh, PANK3 / RFU, SH3YL1 / Fold change vs veh, SH3YL1 / RFU, ZEB2 / Fold change vs veh, ZEB2 / RFU, NRIP1 / Fold change vs veh, NRIP1 / RFU, PTTG1IP / Fold change vs veh, PTTG1IP / RFU, CAPN2 / Fold change vs veh, CAPN2 / RFU, MED14 / Fold change vs veh, MED14 / RFU, SNORA58 / Fold change vs veh, SNORA58 / RFU, C1orf63 / Fold change vs veh, C1orf63 / RFU, LRRFIP1 / Fold change vs veh, LRRFIP1 / RFU, NDUFAF7 / Fold change vs veh, NDUFAF7 / RFU, SLC12A2 / Fold change vs veh, SLC12A2 / RFU, IBTK / Fold change vs veh, IBTK / RFU, ESF1 / Fold change vs veh, ESF1 / Fold change vs veh, TMEM50B / RFU, TAOK1 / Fold change vs veh, TAOK1 / RFU, ACBD3 / Fold change vs veh, ACBD3 / RFU, TMA16 / Fold change vs veh, TMA16 / RFU, RWDD3 / Fold change vs veh, RWDD3 / RFU, BCAT1 / Fold change vs veh, BCAT1 / RFU, EDEM3 / Fold change vs veh, EDEM3 / RFU, TMEM33 / Fold change vs veh, TMEM33 / RFU, WDR75 / Fold change vs veh, WDR75 / RFU, AHCTF1 / Fold change vs veh, AHCTF1 / RFU, TFRC / Fold change vs veh, TFRC / RFU, ZDHHC17 / Fold change vs veh, ZDHHC17 / RFU, NOM1 / Fold change vs veh, NOM1 / RFU, ARL8B / Fold change vs veh, ARL8B / RFU, ZBTB11 / Fold change vs veh, ZBTB11 / RFU, TAMM41 / Fold change vs veh, TAMM41 / RFU, KIAA1704 /// LOC100996395 / Fold change vs veh, KIAA1704 /// LOC100996395 / RFU, ING1 / Fold change vs veh, ING1 / RFU, TRMT61B / Fold change vs veh, TRMT61B / RFU, FUBP3 / Fold change vs veh, FUBP3 / RFU, TP53 / Fold change vs veh, TP53 / RFU, TNKS2 / Fold change vs veh, TNKS2 / RFU, ZFP14 / Fold change vs veh, ZFP14 / RFU, ACTR2 / Fold change vs veh, ACTR2 / RFU, PPP3R1 / Fold change vs veh, PPP3R1 / RFU, PIK3R1 / Fold change vs veh, PIK3R1 / RFU, HNRNPA1 / Fold change vs veh, HNRNPA1 / RFU, RNF170 / Fold change vs veh, RNF170 / RFU, ZNF28 / Fold change vs veh, ZNF28 / RFU, RNGTT / Fold change vs veh, RNGTT / RFU, OGT / Fold change vs veh, OGT / RFU, BRD1 / Fold change vs veh, BRD1 / RFU, MARS / Fold change vs veh, MARS / RFU, ZNF655 / Fold change vs veh, ZNF655 / RFU, FAHD1 / Fold change vs veh, FAHD1 / RFU, BDP1 / Fold change vs veh, BDP1 / RFU, LRRCC1 / Fold change vs veh, LRRCC1 / RFU, ARID1A / Fold change vs veh, ARID1A / RFU, ZNF146 / Fold change vs veh, ZNF146 / RFU, ZNF330 / Fold change vs veh, ZNF330 / RFU, GPN3 / Fold change vs veh, GPN3 / RFU, C9orf123 / Fold change vs veh, C9orf123 / RFU, N4BP2L2 / Fold change vs veh, N4BP2L2 / RFU, ARFIP1 / Fold change vs veh, ARFIP1 / RFU, FAM179B / Fold change vs veh, FAM179B / RFU, BCL10 / Fold change vs veh, BCL10 / RFU, UHRF1BP1L / Fold change vs veh, UHRF1BP1L / RFU, BET1 / Fold change vs veh, BET1 / RFU, CNOT2 / Fold change vs veh, CNOT2 / RFU, ZNF268 / Fold change vs veh, ZNF268 / Fold change vs veh, ZNF507 / RFU, DGCR2 / Fold change vs veh, DGCR2 / RFU, WDSUB1 / Fold change vs veh, WDSUB1 / Fold change vs veh, HSP90B1 /// MIR3652 / RFU, ADSS / Fold change vs veh, ADSS / RFU, GK / Fold change vs veh, GK / RFU, ZNF148 / Fold change vs veh, ZNF148 / RFU, TAF9 / Fold change vs veh, TAF9 / RFU, SLC1A5 / Fold change vs veh, SLC1A5 / RFU, SLMO2 / Fold change vs veh, SLMO2 / RFU, ABCC4 / Fold change vs veh, ABCC4 / RFU, LOC101060439 /// RAP1B / Fold change vs veh, LOC101060439 /// RAP1B / RFU, RFX7 / Fold change vs veh, RFX7 / RFU, GTPBP10 / Fold change vs veh, GTPBP10 / RFU, CNEP1R1 / Fold change vs veh, CNEP1R1 / RFU, BIVM-ERCC5 /// ERCC5 / Fold change vs veh, BIVM-ERCC5 /// ERCC5 / RFU, ILF3 / Fold change vs veh, ILF3 / RFU 11762660_at / Fold change /veh 11762660_at / RFU VCAN (11757783_s_at) / Fold change /veh VCAN (11757783_s_at) / RFU DDX43 (11728927_at) / Fold change /veh DDX43 (11728927_at) / RFU KRT8 (11758188_x_at) / Fold change /veh KRT8 (11758188_x_at) / RFU NKD1 (11759106_at) / Fold change /veh NKD1 (11759106_at) / RFU SRD5A1 (11742802_a_at) / Fold change /veh SRD5A1 (11742802_a_at) / RFU TPSAB1 /// TPSB2 (11721975_s_at) / Fold change /veh TPSAB1 /// TPSB2 (11721975_s_at) / RFU GSTM3 (11746129_a_at) / Fold change /veh GSTM3 (11746129_a_at) / RFU IL23R (11737362_x_at) / Fold change /veh IL23R (11737362_x_at) / RFU TMEM51 (11727254_a_at) / Fold change /veh TMEM51 (11727254_a_at) / RFU PIWIL2 (11732686_x_at) / Fold change /veh PIWIL2 (11732686_x_at) / RFU ORM1 (11744905_x_at) / Fold change /veh ORM1 (11744905_x_at) / RFU CCDC152 (11743942_at) / Fold change /veh CCDC152 (11743942_at) / RFU ECM1 (11717891_a_at) / Fold change /veh ECM1 (11717891_a_at) / RFU IL23R (11748794_a_at) / Fold change /veh IL23R (11748794_a_at) / RFU TNFAIP8L3 (11732012_x_at) / Fold change /veh TNFAIP8L3 (11732012_x_at) / RFU MBOAT4 (11741988_at) / Fold change /veh MBOAT4 (11741988_at) / RFU 11764193_at / Fold change /veh 11764193_at / RFU TMEM53 (11763286_at) / Fold change /veh TMEM53 (11763286_at) / RFU MAGEB2 (11727129_at) / Fold change /veh MAGEB2 (11727129_at) / RFU TMEM200A (11744735_a_at) / Fold change /veh TMEM200A (11744735_a_at) / RFU CCDC152 (11751479_a_at) / Fold change /veh CCDC152 (11751479_a_at) / RFU FAM211A (11726209_a_at) / Fold change /veh FAM211A (11726209_a_at) / RFU RGS16 (11746705_a_at) / Fold change /veh RGS16 (11746705_a_at) / RFU VCAN (11755009_s_at) / Fold change /veh VCAN (11755009_s_at) / RFU RHOB (11743442_s_at) / Fold change /veh RHOB (11743442_s_at) / RFU RGS16 (11720943_a_at) / Fold change /veh RGS16 (11720943_a_at) / RFU RGS16 (11720944_at) / Fold change /veh RGS16 (11720944_at) / RFU, VPS4B / Fold change vs veh, VPS4B / RFU, CREB1 / Fold change vs veh, CREB1 / RFU, DNAJC13 / Fold change vs veh, DNAJC13 / RFU, GNAQ / Fold change vs veh, GNAQ / RFU, CDK5R1 / Fold change vs veh, CDK5R1 / RFU, ZRANB3 / Fold change vs veh, ZRANB3 / RFU, CUL4A / Fold change vs veh, CUL4A / RFU, CCNY / Fold change vs veh, CCNY / RFU, UFL1 / Fold change vs veh, UFL1 / RFU, COG3 / Fold change vs veh, COG3 / RFU, DIAPH2 / Fold change vs veh, DIAPH2 / RFU, SKA2 / Fold change vs veh, SKA2 / RFU, AFF3 / Fold change vs veh, AFF3 / RFU, LMF1 / Fold change vs veh, LMF1 / RFU, IPO11 / Fold change vs veh, IPO11 / RFU, DFFB / Fold change vs veh, DFFB / RFU, FOXP1 / Fold change vs veh, FOXP1 / RFU, CARD8 / Fold change vs veh, CARD8 / RFU, STRN3 / Fold change vs veh, STRN3 / RFU, ADK / Fold change vs veh, ADK / RFU, RASSF2 / Fold change vs veh, RASSF2 / RFU, WIPF1 / Fold change vs veh, WIPF1 / RFU, LARP1B / Fold change vs veh, LARP1B / RFU, RASA1 / Fold change vs veh, RASA1 / RFU, RB1 / Fold change vs veh, RB1 / RFU, PPFIA1 / Fold change vs veh, PPFIA1 / RFU, MAT2A / Fold change vs veh, MAT2A / RFU, CCT5 / Fold change vs veh, CCT5 / RFU, WDR92 / Fold change vs veh, WDR92 / RFU, CUX1 / Fold change vs veh, CUX1 / RFU, TTC7A / Fold change vs veh, TTC7A / RFU, TMEM135 / Fold change vs veh, TMEM135 / RFU, DEPTOR / Fold change vs veh, DEPTOR / RFU, CPM / Fold change vs veh, CPM / RFU, DNAJB6 / Fold change vs veh, DNAJB6 / RFU, CACNA2D3 / Fold change vs veh, CACNA2D3 / RFU, DTX4 / Fold change vs veh, DTX4 / RFU, TFCP2 / Fold change vs veh, TFCP2 / RFU, GMCL1 /// GMCL1P1 / Fold change vs veh, GMCL1 /// GMCL1P1 / RFU, AEBP2 / Fold change vs veh, AEBP2 / RFU, SNHG1 /// SNORD22 /// SNORD25 /// SNORD26 /// SNORD27 /// SNORD28 /// SNORD29 /// SNORD31 / Fold change vs veh, SNHG1 /// SNORD22 /// SNORD25 /// SNORD26 /// SNORD27 /// SNORD28 /// SNORD29 /// SNORD31 / Fold change (Aza/veh), C12orf56 (ProbeSet 11735607_a_at) / Fold change (ACY-1035/veh), C12orf56 (ProbeSet 11735607_a_at) / Fold change (Aza/veh), FGFR1OP (ProbeSet 11751329_s_at) / Fold change (ACY-1035/veh), FGFR1OP (ProbeSet 11751329_s_at) / Fold change (Aza/veh), VPS36 (ProbeSet 11739960_a_at) / Fold change (ACY-1035/veh), VPS36 (ProbeSet 11739960_a_at) / RFU SYPL1 (11715823_x_at) / Fold change /veh SYPL1 (11715823_x_at) / RFU IGFBP7 (11715501_s_at) / Fold change /veh IGFBP7 (11715501_s_at) / RFU REEP3 (11722064_at) / Fold change /veh REEP3 (11722064_at) / RFU IGLL1 (11728026_x_at) / Fold change /veh IGLL1 (11728026_x_at): dose or concentration left out as unconfirmed. The following applies: MV-4-11 cells, 48 hours.

`Nc1ncn([C@@H]2O[C@H](CO)[C@@H](O)[C@H]2O)c(=O)n1` [azacitidine]: the “RFU CAMK2N1 (11719241_x_at)” value was determined as 56.90 RFU.

The values above are taken from publication PMC5218480 (PLoS ONE, 2017).
